{"source": "paper PMC10845205", "about": "“Discovery of novel antibacterial agent for the infected wound treatment: all-hydrocarbon stapling optimization of LL-37” (Theranostics, 2024)", "key": {"[1]": {"test": "α-helicity by circular dichroism", "format": "physicochemical", "details": "CD, aqueous solution containing 50% trifluoroethanol, from [θ]222, 25 °C", "experimental": "cm2 ∙ dmol−1) after subtracting the background using the following equation:\n[θ]=(θ×1000)/( c ×l ×n ), among which, θ is the ellipticity recorded (mdeg), c is the concentration of peptide (M), l is the quartz cuvette’s optical path length (cm), and n is the amino acid number of the peptide. The helicity of peptides was calculated using the following equation: α = [θ]222/[θ]max ×100%, where [θ]222 is the mean residue ellipticity of the peptide at 222 nm; [ θ]max = (−44,000 +250T) (1−k/n), k = 4, n is the number of amino acids, T = 25 °C.\nBacterial strains and culture\nBacterial type stains ATCC 25923 S. aureus, ATCC 12228 S. epidermidis, ATCC […]\naeruginosa and ATCC 13883 K. pneumoniae were obtained from Shanghai Bioresource Collection Center. The bacterial culture medium was purchased from Oxoid and autoclaved according to the instructions from manufacturer. […]\nThe minimal inhibition concentration (MIC) of the linear and stapled peptides was determined using the microbroth dilution method from the Clinical and Laboratory Standards Institute (CLSI)[2, 3]. […]\n10 μL AlamarBlue cell viability reagent (ThermoFisher Scientific, UK) was added to each well, then the plate was re -incubated for a further 2 hours at 37 °C. The MIC was recorded as the minimum concentration of peptides required to completely in hibit bacteria growth. […]"}, "rabbit erythrocytes": {"system": "rabbit erythrocytes", "test": "Hemolysis assay", "details": "rabbit erythrocytes 4% (v/v), 256 μg/mL peptide, 1 h 37 °C, absorbance 570 nm, 0.1% Triton X-100 control", "experimental": "The hemolytic activity of peptides was tested using rabbit erythrocytes (Figure S13). […]\nthe supernatant was collected and analyzed by RP-HPLC, with a UV detector monitored at 220 nm. Record the peak area of the intact peptide and calculate the percentage of remaining peptide based on the integrated area as, Peptide remaining (%) = peak area of remaining peptide/peak area of intact peptide×100%. Experiments were performed […]\nwith 200 μL of 4% (v/v) rabbit erythrocyte suspension, and the mixed solution was diluted with rabbit red blood cell suspension to obtain a series of peptide stock solution with different concentrations by fold dilution. […] Separate the supernatant and use a microplate reader (BioTek, USA) to measure hemoglobin release. Measure the absorbance at a wavelength of 570nm and calculate the percentage of hemolysis as follows: hemolysis (%) = (Abspeptide-Absblank)/(Abscontrol-Absblank), where Absblank and Abscontrol were absorbance of samples treated with PBS and 0.1% Triton X-100, […]\nN-phenyl-1-naphthylamine (NPN, Macklin, China) was used to evaluate the integrity of OM of E. coli treated with the linear and stapled peptides. […] Subsequently, add a final concentration of 10 μM of NPN in each well of the plate and after incubation for 30 m inutes, record the fluorescence at 420 nm using a microplate reader with an exc itation wavelength of 350 […]"}}, "note": "Positions of bridges follow the written chain, without caps; N, C: chain ends. Non-standard residues stand in square brackets, D forms with d. Residues, ends and D or L forms follow the SMILES beside them. S5 = C=CCCC[C@](C)(N)C(=O)O", "data": [{"smiles": "CC[C@H](C)[C@H](NC(=O)[C@H](CCCNC(=N)N)NC(=O)[C@H](CCCCN)NC(C)=O)C(=O)N[C@H](C(=O)N[C@@H](CCC(N)=O)C(=O)N[C@@H](CCCNC(=N)N)C(=O)N[C@H](C(=O)N[C@@]1(C)CCCC=CCCC[C@@](C)(C(N)=O)NC(=O)[C@H](CC(C)C)NC(=O)[C@H](Cc2ccccc2)NC(=O)[C@H](CC(=O)O)NC1=O)[C@@H](C)CC)C(C)C", "note": "[KR-12 (K8, R12)] (Ac-KRIVQRI[S5]DFL[S5]-NH2; staple 8-12)", "values": [{"measurement": "α-helicity", "setting": "[1]", "result": "50.0 ± 0.6", "unit": "%"}, {"measurement": "H256 (hemolysis percentage)", "setting": "rabbit erythrocytes", "result": "77.2 ± 0.3", "unit": "%"}]}]}
